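Tested at 5 concentrations; 48 h exposure; 96-well plates; endpoints linearly interpolated, else capped at highest concentration. Here, GI50 denotes the concentration required for 50% inhibition of growth.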 Activity calls are given as the source filed them. Rule as the data show it: active = GI50 up to about 1.1 µM and inactive = higher.
Tests used:
Test in all cases: DTP human tumour cell line panel, 48 h
786-0 = system: 786-0
A498 = system: A498
ACHN = system: ACHN
COLO 205 = system: COLO 205
HCC 2998 = system: HCC 2998
HT-29 = system: HT-29
K562 = system: K562
M14 = system: M14
MCF7 = system: MCF7
NCI-H460 = system: NCI-H460
NCI/ADR-RES = system: NCI/ADR-RES
OVCAR-5 = system: OVCAR-5
RXF 393 = system: RXF 393
SK-MEL-28 = system: SK-MEL-28
SNB-75 = system: SNB-75
SNB-78 = system: SNB-78
SR = system: SR
T47D = system: T47D
U-251 = system: U-251
UACC-62 = system: UACC-62

Measured: GI50

COc1cc2cc3c4cc(OC)c(OC)cc4cc[n+]3c(C)c2cc1OC.O=C([O-])CS(=O)(=O)O
inactive: 786-0 88.3 µM | A498 22.3 µM | ACHN > 100 µM | COLO 205 57 µM | HCC 2998 > 100 µM | HT-29 53.3 µM | K562 61.1 µM | M14 > 100 µM | MCF7 72.8 µM | NCI-H460 > 100 µM | NCI/ADR-RES > 100 µM | OVCAR-5 > 100 µM | RXF 393 > 100 µM | SK-MEL-28 73.3 µM | SNB-75 12.3 µM | SNB-78 48.4 µM | SR > 100 µM | T47D 26.8 µM | U-251 8.69 µM | UACC-62 65.9 µM
